Results: publication PMC9694494, “Resveratrol/Hydrazone Hybrids: Synthesis and Chemopreventive Activity against Colorectal Cancer Cells” (Pharmaceutics, 2022)
Read-outs that look alike come from different tables or passages of the source.

Assays:
SW620 cells [1] = experiment: Mitochondrial membrane potential (DiOC6/PI flow cytometry), SW620; assay type: cell-based, human; conditions: SW620, treated at IC50 value
Protocol: (§1) To evaluate changes in mitochondrial membrane permeability, the fluorescent dyes DiOC6 (3,3′-dihexyloxacarbocyanine iodide, Thermo Fisher Scientific, Waltham, MA, USA) and propidium iodide (PI) were used. Cell density was adjusted to seed 2.5 × 10^5 cells/well in 6-well tissue culture plates. […] Subsequently, cells were scraped with the same culture mean and stained with both fluorescent dyes, incubating at room temperature for 30 min in darkness. For each sample, 10,000 events were analyzed through flow cytometry with excitation at 488 nm and detection of the emission with the green (530/15 nm) and the red (610/20 nm) filters. The results informed about the cells with depolarized mitochondrial membranes.

SW480 cells [2] = experiment: Antiproliferative activity (SRB, 2-8 days), SW480; assay type: cell-based; conditions: Homo sapiens, read-out: Viability (%) ± SE; for viability at 3 µM: SW480, 3 µM; for viability at 6 µM: SW480, 6 µM; for viability at 12 µM: SW480, 12 µM; for viability at 24 µM: SW480, 24 µM; for viability at 48 µM: SW480, 48 µM
Protocol: (§2) The procedure for evaluating the antiproliferative activity was carried out using the same colorimetric test (SRB) described for cell viability, with minor modifications. Briefly, 2500 cells/well were seeded in 96-well tissue culture plates and incubated as in the previously described conditions for 0, 2, 4, 6, and 8 days. […] The culture medium was changed every 48 h. After each incubation time, cells were fixed, stained, and read as previously described for this technique.

SW620 cells [3] = experiment: Antiproliferative activity (SRB, 2-8 days), SW620; assay type: cell-based; conditions: Homo sapiens, read-out: Viability (%) ± SE; for viability at 3 µM: SW620, 3 µM; for viability at 6 µM: SW620, 6 µM; for viability at 12 µM: SW620, 12 µM; for viability at 24 µM: SW620, 24 µM; for viability at 48 µM: SW620, 48 µM
Protocol: as §2

CHO-K1 cells = experiment: SRB cell viability (cytotoxicity), CHO-K1; assay type: cell-based; conditions: Cricetulus griseus, CHO-K1 nonmalignant cells, read-out: IC50 ± SEM CHO
Protocol: (§3) Human colon cancer cell lines (SW480 and SW620), together with nonmalignant cells (CHO-K1 and HaCaT) were used to study the biological activity. Cells were purchased from the European Collection of Authenticated Cell Cultures (ECACC, UK). Dulbecco’s Modified Eagle Medium (DMEM) containing heat-inactivated (56 °C) horse serum (10%), non-essential amino acids (1%) and antibiotics (penicillin/streptomycin, 1%) (Gibco Invitrogen, Carlsbad, CA, USA) was used to maintain the cells, reducing the horse serum to 3%, and, adding insulin ([…]), transferrin ([…]) and selenium (5 ng/mL) (ITS-defined medium; Gibco, Invitrogen, Carlsbad, CA, USA) for all the experiments.
(§4) The colorimetric test with Sulforhodamine B (SRB) was used to evaluate cell viability. Cell density was adjusted to seed 20.000 cells/well in 96-well tissue culture plates. Cells were first incubated for 24 h and then treated with the synthesized hybrids, the lead compounds (PIH and resveratrol), and the reference drug (5-FU) (concentrations between 0.01 and 200 µM), using DMSO (below 1%) as vehicle control. The optimum conditions were 37 °C and 5% CO2. After the end of each treatment, cold trichloroacetic acid (MERCK, 50% v/v) was added and preserved for one hour at 4 °C, to fix the cells. Then, cell proteins were stained with 0.4% (w/v) SRB (Sigma-Aldrich, St. Louis, MO, USA), and subsequently washed with acetic acid (1%) to remove unbound SRB. After air-drying, protein-bound SRB was solubilized in 10 mM Tris-base before reading the absorbance at 492 nm in a microplate reader (Mindray MR-96A). All experiments were performed at least three times.

SW620 cells [4] = experiment: SRB cell viability (cytotoxicity), SW620; assay type: cell-based, human; conditions: for Selectivity Index SI3: CHO-K1/SW620 IC50 ratio; for IC50: Homo sapiens, SW-620, SRB, read-out: IC50 ± SEM SW620
Protocol: as §3, §4

SW480 cells [5] = experiment: SRB cell viability (cytotoxicity), SW480; assay type: cell-based, human; conditions: for Selectivity Index SI1: CHO-K1/SW480 IC50 ratio; for Selectivity Index SI2: HaCaT/SW480 IC50 ratio; for IC50: Homo sapiens, SW480, SRB, read-out: IC50 ± SEM SW480
Protocol: as §3, §4

HaCaT cells = experiment: SRB cell viability (cytotoxicity), HaCaT; assay type: cell-based; conditions: Homo sapiens, HaCaT nonmalignant cells, read-out: IC50 ± SEM HACAT
Protocol: as §3, §4

SW480 cells [6] = experiment: Mitochondrial membrane potential (DiOC6/PI flow cytometry), SW480; assay type: cell-based, human
Protocol: as §1

[7] = SW-620, 48 h, 2 days after plating
[8] = SW-620, 96 h, 4 days after plating
[9] = SW-620, 144 h, 6 days after plating
[10] = SW-620, 192 h, 8 days after plating
[11] = SW480, treated at IC50 value, DiOC6/PI

For `O=C(N/N=C/c1c(O)cc(O)cc1/C=C/c1ccc(O)cc1)c1ccncc1` [compound 7, N′-((E)-2,4-dihydroxy-6-((E)-4-hydroxystyryl)benzylidene)isonicotinohydrazide], the “Q1: PI-positive cells with membrane damage” value (SW620 cells [1]) was 2.19%, the “Q2: PI-positive cells with membrane damage” value (SW620 cells [1]) was 1.54% and the “Q3: DiOC6 high, live cells with high membrane polarization” value (SW620 cells [1]) was 89.3%. For the same molecule, the “Q4: DiOC6 low, cells in latency that lose membrane polarization” value (SW620 cells [1]) was 6.99%, the viability at 3 µM (SW480 cells [2]; 48 h, 2 days after plating) was 100% and the viability at 6 µM (SW480 cells [2]; 48 h, 2 days after plating) was 90.5 ± 1.38%. The viability at 12 µM (SW480 cells [2]; 48 h, 2 days after plating) was 59.1 ± 0.27%, the viability at 24 µM (SW480 cells [2]; 48 h, 2 days after plating) was 27.2 ± 0.5% and the viability at 48 µM (SW480 cells [2]; 48 h, 2 days after plating) was 19.6 ± 2.58%. The viability at 3 µM (SW480 cells [2]; 96 h, 4 days after plating) was 99.45 ± 0.55%, the viability at 6 µM (SW480 cells [2]; 96 h, 4 days after plating) was 78.5 ± 1.56% and the viability at 12 µM (SW480 cells [2]; 96 h, 4 days after plating) was 11.4 ± 0.35%. The viability at 24 µM (SW480 cells [2]; 96 h, 4 days after plating) was 0%, the viability at 48 µM (SW480 cells [2]; 96 h, 4 days after plating) was 0% and the viability at 3 µM (SW480 cells [2]; 144 h, 6 days after plating) was 96.87 ± 0.14%. The viability at 6 µM (SW480 cells [2]; 144 h, 6 days after plating) was 67.4 ± 1.82%, the viability at 12 µM (SW480 cells [2]; 144 h, 6 days after plating) was 5.49 ± 0.05% and the viability at 24 µM (SW480 cells [2]; 144 h, 6 days after plating) was 0%. For the same molecule, the viability at 48 µM (SW480 cells [2]; 144 h, 6 days after plating) was 0%, the viability at 3 µM (SW480 cells [2]; 192 h, 8 days after plating) was 74.76 ± 0.02% and the viability at 6 µM (SW480 cells [2]; 192 h, 8 days after plating) was 48.5 ± 1.11%. It also gave a viability at 12 µM (SW480 cells [2]; 192 h, 8 days after plating) of 2.52 ± 0.22%, a viability at 24 µM (SW480 cells [2]; 192 h, 8 days after plating) of 0% and a viability at 48 µM (SW480 cells [2]; 192 h, 8 days after plating) of 0%. The viability at 3 µM (SW620 cells [3]; [7]) was 89.3 ± 1.65%, the viability at 6 µM (SW620 cells [3]; [7]) was 88 ± 2.48% and the viability at 12 µM (SW620 cells [3]; [7]) was 67.82 ± 0.4%. The viability at 24 µM (SW620 cells [3]; [7]) was 45.21 ± 0.38%, the viability at 48 µM (SW620 cells [3]; [7]) was 41.5 ± 3.3% and the viability at 3 µM (SW620 cells [3]; [8]) was 87.29 ± 0.75%. It also gave a viability at 6 µM (SW620 cells [3]; [8]) of 72.4 ± 0.9%, a viability at 12 µM (SW620 cells [3]; [8]) of 33 ± 1.8% and a viability at 24 µM (SW620 cells [3]; [8]) of 27.8 ± 2.96%. It also gave a viability at 48 µM (SW620 cells [3]; [8]) of 6.31 ± 0.74%, a viability at 3 µM (SW620 cells [3]; [9]) of 59.2 ± 2.77% and a viability at 6 µM (SW620 cells [3]; [9]) of 43.4 ± 0.48%. The viability at 12 µM (SW620 cells [3]; [9]) was 17.8 ± 0.3%, the viability at 24 µM (SW620 cells [3]; [9]) was 8.13 ± 1.48% and the viability at 48 µM (SW620 cells [3]; [9]) was 0.26 ± 0.07%. It also gave a viability at 3 µM (SW620 cells [3]; [10]) of 46.55 ± 0.03%, a viability at 6 µM (SW620 cells [3]; [10]) of 38.53 ± 0.28% and a viability at 12 µM (SW620 cells [3]; [10]) of 5.53 ± 0.11%. It also gave a viability at 24 µM (SW620 cells [3]; [10]) of 3.93 ± 0.59%, a viability at 48 µM (SW620 cells [3]; [10]) of 0% and an IC50 (CHO-K1 cells; 24 H) of 67.2 ± 4.32 µM. For the same molecule, the IC50 (CHO-K1 cells; 48 H) was 40.5 ± 2.4 µM, the “Selectivity Index SI3” value (SW620 cells [4]; 24 H) was 0.55 and the “Selectivity Index SI4” value (SW620 cells [4]; 24 H, HaCaT/SW620 IC50 ratio) was 0.64. For the same molecule, the “Selectivity Index SI3” value (SW620 cells [4]; 48 H) was 1.06, the IC50 (SW620 cells [4]; 24 H) was 122 ± 10.8 µM and the IC50 (SW620 cells [4]; 48 H) was 38.4 ± 3.3 µM. The “selectivity (SI)” value (SW620 cells [4]; SW620 versus the nonmalignant cell lines, 48 h after treatment) was greater than 1, the “Selectivity Index SI1” value (SW480 cells [5]; 24 H) was 0.80 and the “Selectivity Index SI2” value (SW480 cells [5]; 24 H) was 0.94. The “Selectivity Index SI1” value (SW480 cells [5]; 48 H) was 2.14, the “Selectivity Index SI2” value (SW480 cells [5]; 48 H) was 2.49 and the IC50 (SW480 cells [5]; 24 H) was 84.2 ± 10 µM. For the same molecule, the IC50 (SW480 cells [5]; 48 H) was 19 ± 1.4 µM, the “selectivity (SI)” value (SW480 cells [5]; SW480 versus the nonmalignant cell lines, 48 h after treatment) was greater than 1 and the IC50 (HaCaT cells; 24 H) was 79 ± 6.73 µM. For the same molecule, the IC50 (HaCaT cells; 48 H) was 47.3 ± 2.5 µM, the “effect on mitochondrial membrane potential (ΔΨm)” value (SW480 cells [6]; SW480, regarding the control, increase in DiOC6 low population) was “causing depolarization in the mitochondrial membrane” and the “Q1: PI-positive cells with membrane damage” value (SW480 cells [6]; [11]) was 1.24%. The “Q2: PI-positive cells with membrane damage” value (SW480 cells [6]; [11]) was 0.052%, the “Q3: DiOC6 high, live cells with high membrane polarization” value (SW480 cells [6]; [11]) was 67.3% and the “Q4: DiOC6 low, cells in latency that lose membrane polarization” value (SW480 cells [6]; [11]) was 31.4%.
